According to ChEMBL document CHEMBL5303711, “ECBD screening data for assay EOS300108” (2023):
Structures can show the parent of a compound that is named as a salt. Calls of active or inactive are those of the source. How the calls were made is not given here.

Assay: Cytotoxicity activity against human HepG2 cells assessed by CellTiter-Glo luminescent cell viability assay.
Type: toxicity, cell-based
Parameters: assay stage confirmatory assay, source tissue liver
Settings: HepG2 cells, read-out: IC50 relative

| SMILES | CC50 |
| --- | --- |
| COc1ccc(-c2ccc(CNCCNCCO)o2)cc1Cl | 11.4 µM (active) |
| CCCCN(Cc1ccc(C(=O)NO)cc1)C(=O)Nc1ccccc1 [NEXTURASTAT A] | 6.9 µM (active) |
| C=CC(=O)N1CCC(Oc2cc3c(Nc4ccc(Cl)c(Cl)c4F)ncnc3cc2OC)CC1 [POZIOTINIB] | 18.7 µM (inactive) |
| C[C@@H](Oc1cc(-n2cnc3ccc(CN4CCN(C)CC4)cc32)sc1C(N)=O)c1ccccc1C(F)(F)F [GSK-461364] | 3.7 µM (active) |
| O=S(=O)(c1cccs1)N1CCN(C[C@H](O)COc2cc(Cl)ccc2Cl)CC1 | 8.9 µM (active) |
| CCN1CCS/C1=C\C=C\C1=[N+](CC)CCS1 | 6.3 µM (active) |
| Cc1cccc(C(=O)N[C@@H]2CN(Cc3ccccc3)C[C@H]2CN(C)C)c1 | 10 µM (active) |
| COc1ccc2[nH]c(C(=O)c3ccccc3)cc2c1 | 0.2 µM (inactive) |
| CC(C)Cn1ncc2cc(C(=O)Nc3nc4ccccc4[nH]3)cnc21 | 15.5 µM (inactive) |
| O=C(Cn1ncc(Cl)c(Cl)c1=O)N(Cc1ccco1)CC(F)(F)F | 6.6 µM (active) |
| CCc1cccc(NC(=O)N2CCN(c3ccnc(N4CCCC4)n3)CC2)c1 | 13.5 µM (inactive) |
| CCCCNc1ncc2c(-c3ccc(CN4CCN(C)CC4)cc3)cn([C@H]3CC[C@H](O)CC3)c2n1 | 1.3 µM (active) |
| CCn1c(=O)c(-c2ccc(Cl)cc2Cl)cc2cnc(Nc3ccc(N4CCNCC4)c(F)c3)nc21 | 1.5 µM (active) |
| CCCOc1cc(OCCCCN(C)C)cc(Oc2cc3c(cc2NS(=O)(=O)c2ccc(OC)c(OC)c2)n(C)c(=O)n3C)c1 | 7.8 µM (active) |
| CC(C)Oc1cc(Nc2nc(N[C@@H](C)c3ccc(F)cn3)ncc2Cl)n[nH]1 | 2.6 µM (active) |
| Cc1ccc([C@H](C)N(C)C(=O)Nc2cc(C(C)C)n[nH]2)cc1 | 5 µM (active) |
| COc1cc(CNc2cc(C)nc(N)n2)ccc1C | 6.7 µM (active) |
| O=c1c2ccccc2cnn1-c1nc2ccccc2[nH]1 | 5.2 µM (active) |

| SMILES | CC50 |
| --- | --- |
| COc1ccc(C(=O)Nc2nc3cc4c(cc3s2)OCCO4)cn1 | 50 µM (inactive) |
| CCC(=O)Nc1ccc(Nc2nc(C)cc(N(CC)CC)n2)cc1 | 4.5 µM (active) |
| Cc1cc(F)ccc1N1CCC(NCC(O)c2cccc(O)c2)CC1 (stereo not given) | 10.1 µM (active) |
| COc1ccc2c(c1)cc(C(=O)N[C@@H](C)C(=O)N1CCN(Cc3ccccc3)CC1)n2C | 13.1 µM (inactive) |
| Cc1cc(C(=O)Nc2cccc(N(C)C(=O)c3coc(C)c3)c2)co1 | 1.3 µM (active) |
| COc1ccc(CN2CCN(CCSC)CC2)c2c(OC)cccc12 | 12.6 µM (inactive) |
| CCOC(=O)CCNc1cc(N2CCc3ccccc3CC2)nc(-c2ccccn2)n1 | 7.5 µM (active) |
| CC(C)n1c(/C=C/[C@@H](O)C[C@@H](O)CC(=O)O)c(-c2ccc(F)cc2)c2ccccc21 [LESCOL] | 7.4 µM (active) |
| CC(C)(O)CC(=O)NCCn1ccc2ncnc(Nc3ccc(Oc4cccc(C(F)(F)F)c4)c(Cl)c3)c21 [TAK-285] | 10.5 µM (active) |
| COc1ccc(S(=O)(=O)N2CCN(C(=O)c3ccc(-c4ccc(C(C)=O)cc4)o3)CC2)cc1OC | 8.5 µM (active) |
| CCCNC(=O)N1CC(Oc2ccc(-c3noc(-c4ccncc4)n3)cc2)C1 | 3.1 µM (active) |
| COc1cc2ncnc(Nc3ccc(F)c(Cl)c3)c2cc1NC(=O)/C=C/CN1CCCCC1 [DACOMITINIB ANHYDROUS] | 6.5 µM (active) |
| CCOc1ccc(NC(=O)CNC[C@H]2CCCO2)cc1C | 40.3 µM (inactive) |
| O=C1c2ccccc2C(=O)c2oc(-c3ccccc3)nc21 | 2.6 µM (active) |
| CCCCCCOC(=O)NC(=N)c1ccc(NCc2nc3cc(C(=O)N(CCC(=O)OCC)c4ccccn4)ccc3n2C)cc1 [DABIGATRAN ETEXILATE MESYLATE] | 10.2 µM (active) |
| CCC(C)NC(=O)COc1ccc(-c2nc(C(C)C)no2)cc1 (stereo not given) | 4.2 µM (active) |
| COc1cc2c(Oc3ccc4[nH]c(C)cc4c3F)ncnc2cc1OCCCN1CCCC1 [CEDIRANIB] | 2.5 µM (active) |
